{"source": "patent US11857579B2", "about": "“Composition for promoting the secretion of FGF21” (MORINAGA MILK INDUSTRY CO., LTD., priority 2018, dated 2024)", "key": {"[1]": {"tested_on": "FGF21 gene in liver", "assay": "Expression of FGF21 gene in liver by RT-PCR after oral administration to neonatal mice", "type": "in vivo, C57BL/6J male mice", "excerpt": "(§1) Bacterial cell powder (2.4×10^11 cfu/g) of Bifidobacterium breve M-16V (NITE BP-02622) triturated with starch was suspended in physiological saline to prepare a Bifidobacterium liquid of 2.5×10^9 cfu/ml.\n(§2) Lactulose (manufactured by Morinaga Milk Industry Co., Ltd.), raffinose (product name: Nitten Rraffinose, manufactured by Nippon Beet Sugar Manufacturing Co., Ltd.), and galactooligosaccharide were mixed at a ratio by weight of 1:1:1 and diluted in distilled water to prepare an oligosaccharide stock solution having a total final concentration of 250 mg/ml. The galactooligosaccharide is obtained by removing monosaccharides and disaccharides from a commercial product (product name: Oligomate 55N, manufactured by Yakult Pharmaceutical Industry Co., Ltd.) and contains about 65% by weight of Galβ1-4Galβ1-4Glc (4′-galactosyl lactose) and about 15% by weight of Galβ1-6Galβ1-4Glc (6′-galactosyl lactose). […]\n(§3) Each animal was subjected to anatomy at 21 days old and the serum and liver were taken out of the body. The FGF21 concentration in the serum and the expression of FGF21 gene in the liver were determined. The FGF21 concentration in the serum was measured with an ELISA kit (manufactured by R&D Systems). The expression of FGF21 gene in the liver was measured by RT-PCR. […]"}, "[2]": {"tested_on": "FGF21", "assay": "FGF21 concentration in serum by ELISA after oral administration to neonatal mice", "type": "in vivo, C57BL/6J male mice", "settings": "100 μl once a day during 6 to 20 days old, serum taken at 21 days old", "excerpt": "as §1, §2, §3"}}, "data": [{"substance": "Bifidobacterium breve M-16V (NITE BP-02622) [Group B]", "values": [{"measurement": "Expression of FGF21 gene in the liver compared with group A and group C", "setting": "[1]; at 21 days old, versus group A (vehicle) and group C (oligosaccharide)", "value": "significantly higher"}, {"measurement": "Expression of FGF21 gene in liver (values relative to the value of Group A which was taken as 100.0), Average", "setting": "[1]; neonatal mice, 100 μl once a day during 6 to 20 days old, liver taken at 21 days old, RT-PCR, Group A (vehicle) = 100.0", "value": 197.7}, {"measurement": "FGF21 Concentration in serum, Average", "setting": "[2]", "value": 397.3, "unit": "pg/mL"}]}]}
